This is an account of results in US12281149B2, “Modulators of G-protein coupled receptors” (priority 2021, dated 2025).

As a reminder, the EC50 is the concentration that produces a half-maximal response. For orientation: Emax means the greatest response seen or fitted, relative to the assay's reference.

*1 amine or outer side, *2 acyl side, *3 side chain or, on linkers, in order; H or OH if unused. Where a SMILES comes first, the peptide text is derived from it. Side-chain parts run from the residue outwards. [ ]: non-standard residue; d: D form. The star is where a group is joined. Isobutyryl(2-(3-CN-5-F-Ph)) = CC(C)(C(=O)*)c1cc(F)cc(C#N)c1; C20 diacid = O=C(O)CCCCCCCCCCCCCCCCCCC(=O)*; γGlu = O=C(O)[C@H](CCC(=O)[*:2])N[*:1]; X57 = CO[C@@H](CN[*:1])C(=O)[*:2]; AEEA = NCCOCCOCC(=O)O; Aib = CC(C)(N)C(=O)O; βAla = NCCC(=O)O

Holding throughout (assay type): cell-based
Assay [1] concerns the target T1, GLP-1 receptor (Homo sapiens, UniProt P43220). The experiment in a line: HitHunter cAMP assay, GLP-1 receptor. The following applies: for EC50: CHO cells stably expressing human GLP-1 receptor, cAMP accumulation, 30 min, read-out: EC50 GLP-1R; for Emax: CHO cells, cAMP, normalized to maximum signal from GLP-1 (high) and DMSO (low), read-out: Emax GLP-1R. For orientation: Cyclic AMP is a second messenger, typically raised through Gs and lowered through Gi signalling.

Assay [2] addresses T2, GIP receptor (Homo sapiens, UniProt P48546).
T2 sequence (P48546 22-466): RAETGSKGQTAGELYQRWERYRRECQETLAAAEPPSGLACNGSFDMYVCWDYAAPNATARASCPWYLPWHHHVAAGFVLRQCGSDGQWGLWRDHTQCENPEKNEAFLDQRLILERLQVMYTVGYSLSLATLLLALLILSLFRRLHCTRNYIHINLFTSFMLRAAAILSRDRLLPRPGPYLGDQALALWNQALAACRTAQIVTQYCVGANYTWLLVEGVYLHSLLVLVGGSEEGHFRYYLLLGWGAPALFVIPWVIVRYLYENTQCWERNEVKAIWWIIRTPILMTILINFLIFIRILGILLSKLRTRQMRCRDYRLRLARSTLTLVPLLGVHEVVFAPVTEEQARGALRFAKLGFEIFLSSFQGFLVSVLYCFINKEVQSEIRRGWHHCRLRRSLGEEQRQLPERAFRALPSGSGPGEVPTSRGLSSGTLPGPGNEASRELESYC
Briefly: HitHunter cAMP assay, GIP receptor. The following applies: for EC50: CHO cells stably expressing GIP receptor, cAMP accumulation, 30 min, read-out: EC50 GIP-1R; for Emax: CHO cells, cAMP, normalized to maximum signal from GIP (high) and DMSO (low), read-out: Emax GIP-1R.

Assay [3] addresses T2, GIP receptor. The experiment in a line: PathHunter β-arrestin assay, GIP receptor. The following applies: β-arrestin-2 recruitment, PathHunter CHO-K1 GIPR β-Arrestin Cell Line, 90 min at 37° C.; normalized to GIP; read-out: GIPR β Arrestin EC50. The arrangement: host or cells: PathHunter CHO-K1 GIPR β-Arrestin Cell Line. (In general: Recruitment of arrestin is a read-out of receptor activation apart from second messengers.)

For assay [4], the target named is T1, GLP-1 receptor. The experiment in a line: PathHunter β-arrestin assay, GLP-1 receptor. Also on record: host or cells: PathHunter CHO-K1 GLP1R β-Arrestin Cell Line. The following applies: β-arrestin-2 recruitment, PathHunter CHO-K1 GLP1R β-Arrestin Cell Line, 90 min at 37° C.; normalized to GLP-1; read-out: GLP-1R β Arrestin EC50.

T1 sequence (P43220 24-463): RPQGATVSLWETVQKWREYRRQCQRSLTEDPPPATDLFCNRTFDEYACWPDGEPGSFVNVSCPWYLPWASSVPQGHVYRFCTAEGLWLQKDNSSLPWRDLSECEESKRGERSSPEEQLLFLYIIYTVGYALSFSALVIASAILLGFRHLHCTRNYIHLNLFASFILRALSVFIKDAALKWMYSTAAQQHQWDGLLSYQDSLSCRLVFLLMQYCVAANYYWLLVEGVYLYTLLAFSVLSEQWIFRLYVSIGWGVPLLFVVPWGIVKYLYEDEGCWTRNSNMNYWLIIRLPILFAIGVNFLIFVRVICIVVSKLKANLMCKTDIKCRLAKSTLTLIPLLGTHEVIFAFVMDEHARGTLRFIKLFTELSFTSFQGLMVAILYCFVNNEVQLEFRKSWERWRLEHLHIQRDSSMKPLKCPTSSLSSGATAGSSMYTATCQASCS

On to `CC[C@H](C)[C@H](NC(=O)[C@H](CC(C)C)NC(=O)[C@H](Cc1c[nH]c2ccccc12)NC(=O)[C@H](CCC(N)=O)NC(=O)[C@@H](NC(=O)[C@H](Cc1ccccc1)NC(=O)[C@H](C)NC(=O)[C@H](CCCCNC(=O)COCCOCCNC(=O)COCCOCCNC(=O)CC[C@H](NC(=O)CCCCCCCCCCCCCCCCCCC(=O)O)C(=O)O)NC(=O)[C@H](CCC(N)=O)NC(=O)[C@H](C)NC(=O)[C@@H](NC(=O)[C@H](CCCCN)NC(=O)[C@H](CC(=O)O)NC(=O)[C@H](CC(C)C)NC(=O)C(C)(C)NC(=O)[C@@H](NC(=O)[C@H](CO)NC(=O)[C@H](Cc1ccc(O)cc1)NC(=O)[C@H](CC(=O)O)NC(=O)[C@H](CO)NC(=O)[C@@H](NC(=O)[C@H](Cc1ccccc1)NC(=O)[C@@H](NC(=O)CNC(=O)[C@@H](CCC(=O)O)NC(=O)CCNC(=O)C(C)(C)c1cc(F)cc(C#N)c1)[C@@H](C)O)[C@@H](C)O)[C@@H](C)CC)[C@@H](C)CC)C(C)C)C(=O)N[C@@H](C)C(=O)NCC(=O)NCC(=O)N1CCC[C@H]1C(=O)N[C@@H](CO)C(=O)N[C@@H](CO)C(=O)NCC(=O)N[C@@H](C)C(=O)N1CCC[C@H]1C(=O)N1CCC[C@H]1C(=O)N1CCC[C@H]1C(=O)N[C@@H](CO)C(N)=O` [Compound 109] ({Isobutyryl(2-(3-CN-5-F-Ph))-βAla}-[dE]GTFTSDYSI[Aib]LDKIAQK([AEEA-AEEA-γGlu-C20 diacid])AFVQWLIAGGPSSGAPPPS-NH2), for which the 50% effective concentration (EC50) was 10 to 100 nM at GLP-1 receptor [1], 10 to 100 nM on GIP receptor [2], more than 1000 nM on GIP receptor [3] and more than 1000 nM at GLP-1 receptor [4]. Besides, the maximal response (Emax) at GLP-1 receptor [1] amounted to 82%; at GIP receptor [2], 96%.

Regarding `CC[C@H](C)[C@H](NC(=O)[C@H](CC(C)C)NC(=O)[C@H](Cc1c[nH]c2ccccc12)NC(=O)[C@H](CCC(N)=O)NC(=O)[C@@H](NC(=O)[C@H](Cc1ccccc1)NC(=O)[C@H](C)NC(=O)[C@H](CCCCNC(=O)COCCOCCNC(=O)COCCOCCNC(=O)CC[C@H](NC(=O)CCCCCCCCCCCCCCCCCCC(=O)O)C(=O)O)NC(=O)[C@H](CCC(N)=O)NC(=O)[C@H](C)NC(=O)[C@@H](NC(=O)[C@H](CCCCN)NC(=O)[C@H](CC(=O)O)NC(=O)[C@H](CC(C)C)NC(=O)C(C)(C)NC(=O)[C@@H](NC(=O)[C@H](CO)NC(=O)[C@H](Cc1ccc(O)cc1)NC(=O)[C@H](CC(=O)O)NC(=O)[C@H](CO)NC(=O)[C@@H](NC(=O)[C@H](Cc1ccccc1)NC(=O)[C@@H](NC(=O)CNC(=O)[C@H](CCC(=O)O)NC(=O)[C@H](CNC(=O)C(C)(C)c1cc(F)cc(C#N)c1)OC)[C@@H](C)O)[C@@H](C)O)[C@@H](C)CC)[C@@H](C)CC)C(C)C)C(=O)N[C@@H](C)C(=O)NCC(=O)NCC(=O)N1CCC[C@H]1C(=O)N[C@@H](CO)C(=O)N[C@@H](CO)C(=O)NCC(=O)N[C@@H](C)C(=O)N1CCC[C@H]1C(=O)N1CCC[C@H]1C(=O)N1CCC[C@H]1C(=O)N[C@@H](CO)C(N)=O` [Compound 194] ({Isobutyryl(2-(3-CN-5-F-Ph))}-[X57]EGTFTSDYSI[Aib]LDKIAQK([AEEA-AEEA-γGlu-C20 diacid])AFVQWLIAGGPSSGAPPPS-NH2), the EC50 on GLP-1 receptor [1] is 10 to 100 nM; on GIP receptor [2], 10 to 100 nM; at GIP receptor [3], more than 1000 nM; at GLP-1 receptor [4], more than 1000 nM. In addition, the Emax came to 80% at GLP-1 receptor [1] and 78% at GIP receptor [2].
